Measured values as given in the supplement of paper PMC13207355.
Where a name gives a salt, the structure may show the parent alone.

Key:
Details in all cases: exposure time: 72 h
E31 [1] = patient-derived glioblastoma stem cells of proneural subtype; assay: surviving fraction (nuclei count normalised to DMSO); higher = more cells surviving (less toxic)
FT3469 [2] = normal neural stem cell line; assay: as above
E21 [3] = patient-derived glioblastoma stem cells of mesenchymal subtype; assay: as above
E57 [4] = patient-derived glioblastoma stem cells of mesenchymal subtype; assay: as above
E13 [5] = patient-derived glioblastoma stem cells of classical subtype; assay: as above
E28 [6] = patient-derived glioblastoma stem cells of classical subtype; assay: as above
E34 [7] = patient-derived glioblastoma stem cells of proneural subtype; assay: as above
E31 [8] = assay: phenotypic distance (Euclidean, principal components) from DMSO controls (arbitrary units); higher = stronger morphological change
FT3469 [9] = assay: as above
E21 [10] = assay: as above
E57 [11] = assay: as above
E13 [12] = assay: as above
E28 [13] = assay: as above
E34 [14] = assay: as above
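Throughout, for phenotypic distance (Euclidean, principal components) from DMSO controls: cell Painting imaging in 384-well plates, CellProfiler features reduced to at least 20 principal components, Euclidean distance versus same-plate DMSO vehicle wells (0.1% v/v), median over six images per well.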
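Throughout, for surviving fraction (nuclei count normalised to DMSO): nuclei counted by high-content imaging of Hoechst-stained cells in laminin-coated 384-well plates, relative to 0.1% DMSO vehicle wells, with staurosporine as cell-death control.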

CN(C)CCN(Cc1ccc(Cl)cc1)c1ccccn1 [Chloropyramine hydrochloride]
Details | phenotypic distance | surviving fraction
E13 [5], 4.1 nM | – | 0.918
E13 [5], 12.3 nM | – | 0.933
E13 [5], 37 nM | – | 0.988
E13 [5], 111.1 nM | – | 0.881
E13 [5], 333.3 nM | – | 0.847
E13 [5], 1000 nM | – | 0.953
E13 [5], 3000 nM | – | 0.933
E13 [12], 4.1 nM | 0.601 | –
E13 [12], 12.3 nM | 0.447 | –
E13 [12], 37 nM | 0.683 | –
E13 [12], 111.1 nM | 0.455 | –
E13 [12], 333.3 nM | 0.745 | –
E13 [12], 1000 nM | 1.13 | –
E13 [12], 3000 nM | 0.879 | –
E21 [3], 4.1 nM | – | 0.942
E21 [3], 12.3 nM | – | 1.03
E21 [3], 37 nM | – | 0.87
E21 [3], 111.1 nM | – | 0.922
E21 [3], 333.3 nM | – | 0.993
E21 [3], 1000 nM | – | 1.12
E21 [3], 3000 nM | – | 1.08
E21 [10], 4.1 nM | 0.655 | –
E21 [10], 12.3 nM | 0.862 | –
E21 [10], 37 nM | 0.953 | –
E21 [10], 111.1 nM | 0.778 | –
E21 [10], 333.3 nM | 0.678 | –
E21 [10], 1000 nM | 1.38 | –
E21 [10], 3000 nM | 1.62 | –
E28 [6], 4.1 nM | – | 1.1
E28 [6], 12.3 nM | – | 0.995
E28 [6], 37 nM | – | 1.11
E28 [6], 111.1 nM | – | 0.91
E28 [6], 333.3 nM | – | 1.03
E28 [6], 1000 nM | – | 1.19
E28 [6], 3000 nM | – | 1.13
E28 [13], 4.1 nM | 1.02 | –
E28 [13], 12.3 nM | 1.04 | –
E28 [13], 37 nM | 0.979 | –
E28 [13], 111.1 nM | 0.796 | –
E28 [13], 333.3 nM | 1.02 | –
E28 [13], 1000 nM | 0.889 | –
E28 [13], 3000 nM | 0.936 | –
E31 [1], 4.1 nM | – | 0.968
E31 [1], 12.3 nM | – | 0.91
E31 [1], 37 nM | – | 0.853
E31 [1], 111.1 nM | – | 0.919
E31 [1], 333.3 nM | – | 0.897
E31 [1], 1000 nM | – | 0.946
E31 [1], 3000 nM | – | 0.856
E31 [8], 4.1 nM | 1.06 | –
E31 [8], 12.3 nM | 0.615 | –
E31 [8], 37 nM | 0.841 | –
E31 [8], 111.1 nM | 0.689 | –
E31 [8], 333.3 nM | 0.862 | –
E31 [8], 1000 nM | 0.815 | –
E31 [8], 3000 nM | 0.985 | –
E34 [7], 4.1 nM | – | 0.981
E34 [7], 12.3 nM | – | 0.964
E34 [7], 37 nM | – | 1.06
E34 [7], 111.1 nM | – | 0.866
E34 [7], 333.3 nM | – | 0.942
E34 [7], 1000 nM | – | 1.14
E34 [7], 3000 nM | – | 1
E34 [14], 4.1 nM | 1.29 | –
E34 [14], 12.3 nM | 1.02 | –
E34 [14], 37 nM | 1.15 | –
E34 [14], 111.1 nM | 2.53 | –
E34 [14], 333.3 nM | 0.82 | –
E34 [14], 1000 nM | 0.757 | –
E34 [14], 3000 nM | 1.2 | –
E57 [4], 4.1 nM | – | 0.916
E57 [4], 12.3 nM | – | 0.978
E57 [4], 37 nM | – | 0.96
E57 [4], 111.1 nM | – | 0.936
E57 [4], 333.3 nM | – | 0.986
E57 [4], 1000 nM | – | 1.02
E57 [4], 3000 nM | – | 1.03
E57 [11], 4.1 nM | 0.61 | –
E57 [11], 12.3 nM | 0.445 | –
E57 [11], 37 nM | 0.59 | –
E57 [11], 111.1 nM | 0.607 | –
E57 [11], 333.3 nM | 0.699 | –
E57 [11], 1000 nM | 0.663 | –
E57 [11], 3000 nM | 0.75 | –
FT3469 [2], 4.1 nM | – | 0.774
FT3469 [2], 12.3 nM | – | 1.01
FT3469 [2], 37 nM | – | 0.947
FT3469 [2], 111.1 nM | – | 0.867
FT3469 [2], 333.3 nM | – | 0.758
FT3469 [2], 1000 nM | – | 0.878
FT3469 [2], 3000 nM | – | 0.928
FT3469 [9], 4.1 nM | 1.06 | –
FT3469 [9], 12.3 nM | 0.715 | –
FT3469 [9], 37 nM | 0.697 | –
FT3469 [9], 111.1 nM | 0.656 | –
FT3469 [9], 333.3 nM | 0.847 | –
FT3469 [9], 1000 nM | 0.895 | –
FT3469 [9], 3000 nM | 0.975 | –

O=C1c2c(O)ccc(O)c2C(=O)c2c(NCCNCCO)ccc(NCCNCCO)c21 [Mitoxantrone]
Details | phenotypic distance | surviving fraction
E13 [5], 4.1 nM | – | 0.526
E13 [5], 12.3 nM | – | 0.451
E13 [5], 37 nM | – | 0.422
E13 [5], 111.1 nM | – | 0.338
E13 [5], 333.3 nM | – | 0.279
E13 [5], 1000 nM | – | 0.23
E13 [5], 3000 nM | – | 0.219
E13 [12], 4.1 nM | 4.74 | –
E13 [12], 12.3 nM | 5.62 | –
E13 [12], 37 nM | 6.07 | –
E13 [12], 111.1 nM | 6.02 | –
E13 [12], 333.3 nM | 6.18 | –
E13 [12], 1000 nM | 6.49 | –
E13 [12], 3000 nM | 6.08 | –
E21 [3], 4.1 nM | – | 0.689
E21 [3], 12.3 nM | – | 0.608
E21 [3], 37 nM | – | 0.448
E21 [3], 111.1 nM | – | 0.229
E21 [3], 333.3 nM | – | 0.207
E21 [3], 1000 nM | – | 0.209
E21 [3], 3000 nM | – | 0.189
E21 [10], 4.1 nM | 2.94 | –
E21 [10], 12.3 nM | 4.27 | –
E21 [10], 37 nM | 6.11 | –
E21 [10], 111.1 nM | 6.48 | –
E21 [10], 333.3 nM | 6.79 | –
E21 [10], 1000 nM | 6.1 | –
E21 [10], 3000 nM | 5.74 | –
E28 [6], 4.1 nM | – | 0.476
E28 [6], 12.3 nM | – | 0.359
E28 [6], 37 nM | – | 0.358
E28 [6], 111.1 nM | – | 0.262
E28 [6], 333.3 nM | – | 0.313
E28 [6], 1000 nM | – | 0.286
E28 [6], 3000 nM | – | 0.264
E28 [13], 4.1 nM | 3.3 | –
E28 [13], 12.3 nM | 3.24 | –
E28 [13], 37 nM | 3.23 | –
E28 [13], 111.1 nM | 3.7 | –
E28 [13], 333.3 nM | 3.72 | –
E28 [13], 1000 nM | 3.17 | –
E28 [13], 3000 nM | 2.86 | –
E31 [1], 4.1 nM | – | 0.243
E31 [1], 12.3 nM | – | 0.219
E31 [1], 37 nM | – | 0.311
E31 [1], 111.1 nM | – | 0.216
E31 [1], 333.3 nM | – | 0.218
E31 [1], 1000 nM | – | 0.127
E31 [1], 3000 nM | – | 0.142
E31 [8], 4.1 nM | 2.71 | –
E31 [8], 12.3 nM | 3.14 | –
E31 [8], 37 nM | 2.43 | –
E31 [8], 111.1 nM | 2.42 | –
E31 [8], 333.3 nM | 2.72 | –
E31 [8], 1000 nM | 4.39 | –
E31 [8], 3000 nM | 4.07 | –
E34 [7], 4.1 nM | – | 0.578
E34 [7], 12.3 nM | – | 0.494
E34 [7], 37 nM | – | 0.578
E34 [7], 111.1 nM | – | 0.615
E34 [7], 333.3 nM | – | 0.547
E34 [7], 1000 nM | – | 0.564
E34 [7], 3000 nM | – | 0.56
E34 [14], 4.1 nM | 4.38 | –
E34 [14], 12.3 nM | 4.62 | –
E34 [14], 37 nM | 4.33 | –
E34 [14], 111.1 nM | 2.84 | –
E34 [14], 333.3 nM | 2.54 | –
E34 [14], 1000 nM | 1.99 | –
E34 [14], 3000 nM | 2.83 | –
E57 [4], 4.1 nM | – | 0.245
E57 [4], 12.3 nM | – | 0.2
E57 [4], 37 nM | – | 0.174
E57 [4], 111.1 nM | – | 0.165
E57 [4], 333.3 nM | – | 0.161
E57 [4], 1000 nM | – | 0.159
E57 [4], 3000 nM | – | 0.17
E57 [11], 4.1 nM | 8.68 | –
E57 [11], 12.3 nM | 9.84 | –
E57 [11], 37 nM | 8.24 | –
E57 [11], 111.1 nM | 6.95 | –
E57 [11], 333.3 nM | 7.05 | –
E57 [11], 1000 nM | 7.26 | –
E57 [11], 3000 nM | 6.66 | –
FT3469 [2], 4.1 nM | – | 0.595
FT3469 [2], 12.3 nM | – | 0.645
FT3469 [2], 37 nM | – | 0.657
FT3469 [2], 111.1 nM | – | 0.604
FT3469 [2], 333.3 nM | – | 0.639
FT3469 [2], 1000 nM | – | 0.604
FT3469 [2], 3000 nM | – | 0.362
FT3469 [9], 4.1 nM | 1.61 | –
FT3469 [9], 12.3 nM | 1.65 | –
FT3469 [9], 37 nM | 1.7 | –
FT3469 [9], 111.1 nM | 1.36 | –
FT3469 [9], 333.3 nM | 1.3 | –
FT3469 [9], 1000 nM | 2.01 | –
FT3469 [9], 3000 nM | 3.46 | –
